Assay results published in patent publication US7582611B2, “Motilide compounds” (Pfizer Inc., priority 2005, dated 2009).
≈ marks a conversion by molar mass, not a printed value. Like-named read-outs stand apart in the source and are kept apart here.

What was measured:
[1] = test system: Streptococcus pneumoniae ATCC 6301; assay: Evaluation of antibacterial activity (MIC, serial dilutions on 96-well microtiter plates); type: cell-based; conditions: ATCC6301, read-out: Antibacterial Activity (MIC, μg/mL)
Motilin Receptor = molecular target: T1, Motilin Receptor (Oryctolagus cuniculus, UniProt G1T803); assay: Tissue based assay for motilin agonist potency (rabbit duodenum contractility); type: cell-based
T1 construct: strips of longitudinal smooth muscle were sliced from the segments; from tissue; host or cells: rabbit duodenum longitudinal smooth muscle strips
T1 sequence (G1T803 1-400): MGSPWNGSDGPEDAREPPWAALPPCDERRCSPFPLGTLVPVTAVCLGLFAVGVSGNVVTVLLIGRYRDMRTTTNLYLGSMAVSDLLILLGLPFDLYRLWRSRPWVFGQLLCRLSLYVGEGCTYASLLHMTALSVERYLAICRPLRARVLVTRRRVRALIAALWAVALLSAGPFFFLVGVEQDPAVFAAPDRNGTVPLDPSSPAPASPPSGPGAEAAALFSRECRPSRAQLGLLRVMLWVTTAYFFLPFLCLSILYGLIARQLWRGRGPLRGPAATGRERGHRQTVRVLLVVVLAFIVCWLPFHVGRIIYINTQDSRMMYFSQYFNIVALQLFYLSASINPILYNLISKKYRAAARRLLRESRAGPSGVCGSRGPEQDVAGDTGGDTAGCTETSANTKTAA
Procedure: The motilin agonist potencies of compounds of this invention were evaluated using a tissue based assay, using rabbit duodenum tissue-based contractility assay, generally following the procedure of Depoortere et al., J. Gastrointestinal Motility, 1, 150-159 (1989), the disclosure of which is incorporated herein by reference. Briefly, this method measures the ability of a compound to induce contractions in rabbit duodenal tissue, a motilin receptor-bearing tissue contractilely responsive to motilin.
Strips of rabbit duodenum were tested and qualified for use in the assay by as follows. Segments of rabbit duodenum, 20-30 cm distal to the pylorus were split longitudinally. The mucosa was removed and 2×2×15 mm strips of longitudinal smooth muscle were sliced from the segments. The strips were bathed in oxygenated Krebs solution at 37° C., with 1.5 g of tension, and contractions measured auxotonically.
The carbachol was then washed away by changing the organ bath buffer twice. The strips were washed again 20±5 minutes following the carbachol contraction. Following this last wash a dose response study was initiated within 10±5 min. Each compound tested was dissolved in dimethylsulfoxide (DMSO) to a final concentration of 10 mM. A series of seven 10× serial dilutions in water was prepared, so that the concentration of the seventh serial dilution was 1.0×10^−6 mM. The first through fifth serial dilutions of the compound were applied, starting with 200 μL of the most dilute solution. After each application, there was a wait of 2±0.5 min, until the response was stable, before the application of the next dose (the next higher concentration serial dilution). The dose was increased in 10-fold increments until a small response was observed. Subsequent doses were the increased in 2- to 5-fold increments, until the maximum response was obtained. At 2±0.5 min after the last drug addition, the strips were dosed with 1 μM carbachol.
The EC50 (concentration producing a half-maximal effect) was calculated as follows. The basal tension was subtracted from the compound-induced tension for each reading. The data points were normalized against the response obtained from 1 μM carbachol at the end of the experiment. The concentration of compound was plotted against the response and fitted to the following equation: R=(Rmax·C)/(EC50+C) where R is the contraction response, Rmax is the maximal contraction response, and C is the concentration of compound. Both R and Rmax are expressed as a fraction of the 1 μM carbachol contraction and range from 0 to 1.

[2] = rabbit duodenum strips, contraction normalized to 1 μM carbachol, read-out: Motilin Receptor Agonist Activity (EC50)

SMILES | MIC [1] | EC50 (Motilin Receptor; [2]) | EC50 (Motilin Receptor)
CC[C@H]1OC(=O)[C@H](C)[C@@H](O[C@H]2C[C@@](C)(OC)[C@@H](O)[C@H](C)O2)[C@H](C)[C@@H](O[C@@H]2O[C@H](C)C[C@H](N(C)C(C)C)[C@H]2O)[C@](C)(O)C[C@@H](C)[C@H](OCCNC(C)=O)[C@H](C)[C@@H](O)[C@]1(C)O [Compound A-30] | > 128 µg/mL | 48 nM | 
CC[C@H]1OC(=O)[C@H](C)[C@@H](O[C@H]2C[C@@](C)(OC)[C@@H](O)[C@H](C)O2)[C@H](C)[C@@H](O[C@@H]2O[C@H](C)C[C@H](N(C)C[C@H](C)O)[C@H]2O)[C@](C)(O)C[C@@H](C)[C@H](OCC(=O)N(C)C)[C@H](C)[C@@H](O)[C@]1(C)O [Compound A-16] | > 128 µg/mL | 2900 nM | 
CC[C@H]1OC(=O)[C@H](C)[C@@H](O[C@H]2C[C@@](C)(OC)[C@@H](O)[C@H](C)O2)[C@H](C)[C@@H](O[C@@H]2O[C@H](C)C[C@H](N(C)C3CCC3)[C@H]2O)[C@](C)(O)C[C@@H](C)[C@H](NS(=O)(=O)C2CC2)[C@H](C)[C@@H](O)[C@]1(C)O [Compound A-42] | > 128 µg/mL | 340 nM | 
CC[C@H]1OC(=O)[C@H](C)[C@@H](O[C@H]2C[C@@](C)(OC)[C@@H](O)[C@H](C)O2)[C@H](C)[C@@H](O[C@@H]2O[C@H](C)C[C@H](N(C)C[C@H](C)O)[C@H]2O)[C@](C)(O)C[C@@H](C)[C@H](OS(=O)(=O)N(C)C)[C@H](C)[C@@H](O)[C@]1(C)O [Compound A-20] | 128 µg/mL (≈ 144 µM) | 490 nM | 
CC[C@H]1OC(=O)[C@H](C)[C@@H](O[C@H]2C[C@@](C)(OC)[C@@H](O)[C@H](C)O2)[C@H](C)[C@@H](O[C@@H]2O[C@H](C)C[C@H](N(C)C(C)C)[C@H]2O)[C@](C)(O)C[C@@H](C)[C@H](OCC(=O)Nc2ccncn2)[C@H](C)[C@@H](O)[C@]1(C)O [Compound A-77] | > 128 µg/mL | 25 nM | 
CC[C@H]1OC(=O)[C@H](C)[C@@H](O[C@H]2C[C@@](C)(OC)[C@@H](O)[C@H](C)O2)[C@H](C)[C@@H](O[C@@H]2O[C@H](C)C[C@H](N(C)CC(C)(C)O)[C@H]2O)[C@](C)(O)C[C@@H](C)[C@H](NS(C)(=O)=O)[C@H](C)[C@@H](O)[C@]1(C)O [Compound A-37] | 64 µg/mL (≈ 73.5 µM) | 52 nM | 
CC[C@H]1OC(=O)[C@H](C)[C@@H](O[C@H]2C[C@@](C)(OC)[C@@H](O)[C@H](C)O2)[C@H](C)[C@@H](O[C@@H]2O[C@H](C)C[C@H](N(C)C(C)C)[C@H]2O)[C@](C)(O)C[C@@H](C)[C@H](OC(=O)N(C)C)[C@H](C)[C@@H](O)[C@]1(C)O [Compound A-18] | 128 µg/mL (≈ 153 µM) | 310 nM | 
CC[C@H]1OC(=O)[C@H](C)[C@@H](O[C@H]2C[C@@](C)(OC)[C@@H](O)[C@H](C)O2)[C@H](C)[C@@H](O[C@@H]2O[C@H](C)C[C@H](N(C)C3CCC3)[C@H]2O)[C@](C)(O)C[C@@H](C)[C@H](OCC(=O)OC)[C@H](C)[C@@H](O)[C@]1(C)O [Compound A-23] | > 128 µg/mL | 560 nM | 
CC[C@H]1OC(=O)[C@H](C)[C@@H](O[C@H]2C[C@@](C)(OC)[C@@H](O)[C@H](C)O2)[C@H](C)[C@@H](O[C@@H]2O[C@H](C)C[C@H](N(C)C[C@H](C)O)[C@H]2O)[C@](C)(O)C[C@@H](C)[C@H](OCC(=O)O)[C@H](C)[C@@H](O)[C@]1(C)O [Compound A-11] | > 128 µg/mL | 740 nM | 
CCNC(=S)NCCO[C@@H]1[C@H](C)[C@@H](O)[C@](C)(O)[C@@H](CC)OC(=O)[C@H](C)[C@@H](O[C@H]2C[C@@](C)(OC)[C@@H](O)[C@H](C)O2)[C@H](C)[C@@H](O[C@@H]2O[C@H](C)C[C@H](N(C)C(C)C)[C@H]2O)[C@](C)(O)C[C@H]1C [Compound A-67] | > 128 µg/mL | 220 nM | 
CC[C@H]1OC(=O)[C@H](C)[C@@H](O[C@H]2C[C@@](C)(OC)[C@@H](O)[C@H](C)O2)[C@H](C)[C@@H](O[C@@H]2O[C@H](C)C[C@H](N(C)C3CCC3)[C@H]2O)[C@](C)(O)C[C@@H](C)[C@H](OC)[C@H](C)[C@@H](O)[C@]1(C)O [Compound A-47] |  | 220 nM | 
CC[C@H]1OC(=O)[C@H](C)[C@@H](O[C@H]2C[C@@](C)(OC)[C@@H](O)[C@H](C)O2)[C@H](C)[C@@H](O[C@@H]2O[C@H](C)C[C@H](N(C)C(C)C)[C@H]2O)[C@](C)(O)C[C@@H](C)[C@H](OCC(=O)NC2CC2)[C@H](C)[C@@H](O)[C@]1(C)O [Compound A-46] | 128 µg/mL (≈ 149 µM) | 31 nM | 
CC[C@H]1OC(=O)[C@H](C)[C@@H](O[C@H]2C[C@@](C)(OC)[C@@H](O)[C@H](C)O2)[C@H](C)[C@@H](O[C@@H]2O[C@H](C)C[C@H](N(C)C(C)C)[C@H]2O)[C@](C)(O)C[C@@H](C)[C@H](OC(N)=O)[C@H](C)[C@@H](O)[C@]1(C)O [Compound A-17] | 64 µg/mL (≈ 79.3 µM) | 650 nM | 
CC[C@H]1OC(=O)[C@H](C)[C@@H](O[C@H]2C[C@@](C)(OC)[C@@H](O)[C@H](C)O2)[C@H](C)[C@@H](O[C@@H]2O[C@H](C)C[C@H](N(C)C(C)C)[C@H]2O)[C@](C)(O)C[C@@H](C)[C@H](OCC(=O)NCC(F)(F)F)[C@H](C)[C@@H](O)[C@]1(C)O [Compound A-52] | 128 µg/mL (≈ 142 µM) | 160 nM | 
CC[C@H]1OC(=O)[C@H](C)[C@@H](O[C@H]2C[C@@](C)(OC)[C@@H](O)[C@H](C)O2)[C@H](C)[C@@H](O[C@@H]2O[C@H](C)C[C@H](N(C)C)[C@H]2O)[C@](C)(O)C[C@@H](C)C(=O)[C@H](C)[C@@H](O)[C@]1(C)O [Erythromycin A, reference compound] | 0.0025 µg/mL (≈ 0.00341 µM) |  | 1200 nM
CC[C@H]1OC(=O)[C@H](C)[C@@H](O[C@H]2C[C@@](C)(OC)[C@@H](O)[C@H](C)O2)[C@H](C)[C@@H](O[C@@H]2O[C@H](C)C[C@H](N(C)C(C)C)[C@H]2O)[C@](C)(O)C[C@@H](C)[C@H](NS(C)(=O)=O)[C@H](C)[C@@H](O)[C@]1(C)O [Compound A-35] | 64 µg/mL (≈ 76.1 µM) | 190 nM | 
CC[C@H]1OC(=O)[C@H](C)[C@@H](O[C@H]2C[C@@](C)(OC)[C@@H](O)[C@H](C)O2)[C@H](C)[C@@H](O[C@@H]2O[C@H](C)C[C@H](N(C)C(C)C)[C@H]2O)[C@](C)(O)C[C@@H](C)[C@H](OCCOC)[C@H](C)[C@@H](O)[C@]1(C)O [Compound A-5] | 64 µg/mL (≈ 77.9 µM) | 320 nM | 
CC[C@H]1OC(=O)[C@H](C)[C@@H](O[C@H]2C[C@@](C)(OC)[C@@H](O)[C@H](C)O2)[C@H](C)[C@@H](O[C@@H]2O[C@H](C)C[C@H](N(C)C(C)C)[C@H]2O)[C@](C)(O)C[C@@H](C)[C@H](OC)[C@H](C)[C@@H](O)[C@]1(C)O [Compound A-1] |  | 66 nM | 
CC[C@H]1OC(=O)[C@H](C)[C@@H](O[C@H]2C[C@@](C)(OC)[C@@H](O)[C@H](C)O2)[C@H](C)[C@@H](O[C@@H]2O[C@H](C)C[C@H](N(C)C(C)C)[C@H]2O)[C@](C)(OC)C[C@@H](C)[C@H](OCC(=O)NC)[C@H](C)[C@@H](O)[C@]1(C)O [Compound A-66] |  | 400 nM | 
CC[C@H]1OC(=O)[C@H](C)[C@@H](O[C@H]2C[C@@](C)(OC)[C@@H](O)[C@H](C)O2)[C@H](C)[C@@H](O[C@@H]2O[C@H](C)C[C@H](N(C)C(C)C)[C@H]2O)[C@](C)(O)C[C@@H](C)[C@H](OCCNC=O)[C@H](C)[C@@H](O)[C@]1(C)O [Compound A-78] |  | 31 nM | 
CC[C@H]1OC(=O)[C@H](C)[C@@H](O[C@H]2C[C@@](C)(OC)[C@@H](O)[C@H](C)O2)[C@H](C)[C@@H](O[C@@H]2O[C@H](C)C[C@H](N(C)C(C)C)[C@H]2O)[C@](C)(O)C[C@@H](C)[C@H](OC(=O)NC)[C@H](C)[C@@H](O)[C@]1(C)O [Compound A-79] |  | 400 nM | 
CC[C@H]1OC(=O)[C@H](C)[C@@H](O[C@H]2C[C@@](C)(OC)[C@@H](O)[C@H](C)O2)[C@H](C)[C@@H](O[C@@H]2O[C@H](C)C[C@H](N(C)C(C)C)[C@H]2O)[C@](C)(O)C[C@@H](C)[C@H](OCC(=O)NOC)[C@H](C)[C@@H](O)[C@]1(C)O [Compound A-69] |  | 92 nM | 
